Test results published in patent US11076594B2, “Pyrazolone compound or salt thereof, preparation method therefor, herbicide composition and use thereof” (QINGDAO KINGAGROOT CHEMICAL COMPOUNDS CO., LTD., priority 2015, dated 2021).
One block for each compound: values may come before it.

How the values were obtained:
Type in all cases: in vivo
Settings in all cases: post-emergence spray at 4-5 leaf stage, 250 g/ha active ingredient with 450 kg/ha water, rated after 3 weeks in greenhouse
[1] = test system: corn; test: post-emergence stage experiment, crop (Table 1)
Summary of the method: (§1)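 Greenhouse pot test; foliar spray at 4-5 leaf stage; acetone + Tween 80 + water formulation; 3 wk post-treatment fresh-weight control rate.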

[2] = test system: wheat; test: post-emergence stage experiment, crop (Table 1)
Summary of the method: as §1

[3] = test system: rorippa indica; test: weed control effect in post-emergence stage (Table 1); set-up: key: Level 10: completely dead; Level 9: above 95% growth control rate; Level 8: above 90% growth control rate; Level 7: above 80% growth control rate; Level 6: above 70% growth control rate; Level 5: above 60% growth control rate; Level 4: above 50% growth control rate; Level 3: above 20% growth control rate; Level 2: 5%-20% growth control rate; Level 1: below 5% growth control rate
Summary of the method: as §1

[4] = test system: echinochloa; test: as above; set-up: key: Level 10: completely dead; Level 9: above 95% growth control rate; Level 8: above 90% growth control rate; Level 7: above 80% growth control rate; Level 6: above 70% growth control rate; Level 5: above 60% growth control rate; Level 4: above 50% growth control rate; Level 3: above 20% growth control rate; Level 2: 5%-20% growth control rate; Level 1: below 5% growth control rate
Summary of the method: as §1

[5] = test system: bidens bipinnata; test: as above; set-up: key: Level 10: completely dead; Level 9: above 95% growth control rate; Level 8: above 90% growth control rate; Level 7: above 80% growth control rate; Level 6: above 70% growth control rate; Level 5: above 60% growth control rate; Level 4: above 50% growth control rate; Level 3: above 20% growth control rate; Level 2: 5%-20% growth control rate; Level 1: below 5% growth control rate
Summary of the method: as §1

[6] = test system: Indian mallow; test: as above; set-up: key: Level 10: completely dead; Level 9: above 95% growth control rate; Level 8: above 90% growth control rate; Level 7: above 80% growth control rate; Level 6: above 70% growth control rate; Level 5: above 60% growth control rate; Level 4: above 50% growth control rate; Level 3: above 20% growth control rate; Level 2: 5%-20% growth control rate; Level 1: below 5% growth control rate
Summary of the method: as §1

[7] = test system: crab grass; test: as above; set-up: key: Level 10: completely dead; Level 9: above 95% growth control rate; Level 8: above 90% growth control rate; Level 7: above 80% growth control rate; Level 6: above 70% growth control rate; Level 5: above 60% growth control rate; Level 4: above 50% growth control rate; Level 3: above 20% growth control rate; Level 2: 5%-20% growth control rate; Level 1: below 5% growth control rate
Summary of the method: as §1

[8] = test system: foxtail; test: as above; set-up: key: Level 10: completely dead; Level 9: above 95% growth control rate; Level 8: above 90% growth control rate; Level 7: above 80% growth control rate; Level 6: above 70% growth control rate; Level 5: above 60% growth control rate; Level 4: above 50% growth control rate; Level 3: above 20% growth control rate; Level 2: 5%-20% growth control rate; Level 1: below 5% growth control rate
Summary of the method: as §1

[9] = test system: rice; test: post-emergence stage experiment, crop (Table 1); set-up: key: Level 10: completely dead; Level 9: above 95% growth control rate; Level 8: above 90% growth control rate; Level 7: above 80% growth control rate; Level 6: above 70% growth control rate; Level 5: above 60% growth control rate; Level 4: above 50% growth control rate; Level 3: above 20% growth control rate; Level 2: 5%-20% growth control rate; Level 1: below 5% growth control rate
Summary of the method: as §1

effect on crop, Corn (level) [1]: 0
effect on crop, Wheat (level) [2]: 0
Structure (SMILES): Cc1nn(C)c(OC(=O)c2cnn(C)c2)c1C(=O)c1ccc(C(F)(F)F)c(N2CCCCCC2=O)c1Cl [Compound 057]
weed control effect, Rorippa indica (level) [3]: 10
weed control effect, Echinochloa (level) [4]: 4 (Level 4: above 50% growth control rate)
weed control effect, Bidens bipinnata (level) [5]: 5 (Level 5: above 60% growth control rate)
weed control effect, Indian mallow (level) [6]: 10
weed control effect, Crab grass (level) [7]: 1 (Level 1: below 5% growth control rate)
weed control effect, Green foxtail (level) [8]: 1 (Level 1: below 5% growth control rate)
effect on crop, Rice (level) [9]: 3 (Level 3: above 20% growth control rate)

effect on crop, Corn (level) [1]: 0
effect on crop, Wheat (level) [2]: 0
Structure (SMILES): CCn1ncc(C(=O)c2ccc(C(F)(F)F)c(N3CCCCCC3=O)c2Cl)c1OC(=O)c1cn(C)nc1C [Compound 117]
weed control effect, Rorippa indica (level) [3]: 5 (Level 5: above 60% growth control rate)
weed control effect, Echinochloa (level) [4]: 10
weed control effect, Bidens bipinnata (level) [5]: 10
weed control effect, Indian mallow (level) [6]: 9 (Level 9: above 95% growth control rate)
weed control effect, Crab grass (level) [7]: 3 (Level 3: above 20% growth control rate)
weed control effect, Green foxtail (level) [8]: 10
effect on crop, Rice (level) [9]: 9 (Level 9: above 95% growth control rate)

effect on crop, Corn (level) [1]: 0
effect on crop, Wheat (level) [2]: 2 (Level 2: 5%-20% growth control rate)
effect on crop, Rice (level) [9]: 10
Structure (SMILES): CCc1nn(C)c(O)c1C(=O)c1ccc(C(F)(F)F)c(N2CCCCC2=O)c1Cl [Compound 110]
weed control effect, Rorippa indica (level) [3]: 10
weed control effect, Echinochloa (level) [4]: 9 (Level 9: above 95% growth control rate)
weed control effect, Bidens bipinnata (level) [5]: 5 (Level 5: above 60% growth control rate)
weed control effect, Indian mallow (level) [6]: 9 (Level 9: above 95% growth control rate)
weed control effect, Crab grass (level) [7]: 2 (Level 2: 5%-20% growth control rate)
weed control effect, Green foxtail (level) [8]: 10

effect on crop, Rice (level) [9]: 10
Structure (SMILES): CCn1nc(C)c(C(=O)c2ccc(C(F)(F)F)c(N3CCCC3=O)c2Cl)c1OC(=O)c1cn(C)nc1C [Compound 099]
effect on crop, Corn (level) [1]: 4 (Level 4: above 50% growth control rate)
effect on crop, Wheat (level) [2]: 4 (Level 4: above 50% growth control rate)
weed control effect, Rorippa indica (level) [3]: 10
weed control effect, Echinochloa (level) [4]: 10
weed control effect, Bidens bipinnata (level) [5]: 10
weed control effect, Indian mallow (level) [6]: 3 (Level 3: above 20% growth control rate)
weed control effect, Crab grass (level) [7]: 10
weed control effect, Green foxtail (level) [8]: 10

effect on crop, Rice (level) [9]: 10
Structure (SMILES): CCn1ncc(C(=O)c2ccc(C(F)(F)F)c(-n3cc(C)cn3)c2Cl)c1O [Compound 136]
effect on crop, Corn (level) [1]: 1 (Level 1: below 5% growth control rate)
effect on crop, Wheat (level) [2]: 1 (Level 1: below 5% growth control rate)
weed control effect, Rorippa indica (level) [3]: 10
weed control effect, Echinochloa (level) [4]: 10
weed control effect, Bidens bipinnata (level) [5]: 10
weed control effect, Indian mallow (level) [6]: 10
weed control effect, Crab grass (level) [7]: 7 (Level 7: above 80% growth control rate)
weed control effect, Green foxtail (level) [8]: 10

effect on crop, Corn (level) [1]: 0
Structure (SMILES): CCn1nc(C2CC2)c(C(=O)c2ccc(C(F)(F)F)c(-n3cc(C)cn3)c2Cl)c1OC(=O)c1cn(C)nc1C [Compound 145]
effect on crop, Wheat (level) [2]: 1 (Level 1: below 5% growth control rate)
weed control effect, Rorippa indica (level) [3]: 1 (Level 1: below 5% growth control rate)
weed control effect, Echinochloa (level) [4]: 10
weed control effect, Bidens bipinnata (level) [5]: 10
weed control effect, Indian mallow (level) [6]: 4 (Level 4: above 50% growth control rate)
weed control effect, Crab grass (level) [7]: 4 (Level 4: above 50% growth control rate)
weed control effect, Green foxtail (level) [8]: 8 (Level 8: above 90% growth control rate)
effect on crop, Rice (level) [9]: 9 (Level 9: above 95% growth control rate)
